According to patent US20240245694A1, “Tricyclic Compounds and their Uses” (Novartis AG, priority 2022, published 2024):

Legend:
SW48 cells = test: Proliferation assay SW48 (CellTiterGlo, 96 hours); assay type: cell-based; conditions: Homo sapiens
Method in brief: (§1)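 Cells in RPMI-1640/10% FCS were seeded overnight (SW48 2'000, DLD1-WRN-KO 1'500 cells/well), then exposed to eight 3-fold compound dilutions at 0.1% DMSO. ATP luminescence relative to a day-0 plate gives % growth (0% stasis, −100% complete kill). GI50 is the geometric mean of ≥2 independent replicates.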

DLD1-WRN-KO cells = test: Proliferation assay DLD1-WRN-KO (CellTiterGlo, 96 hours), off-target effects; assay type: cell-based; conditions: Homo sapiens
Method in brief: as §1

[1] = molecular target: WRN helicase (core helicase motif aa N517-P1238) (Homo sapiens (Human), UniProt Q14191); test: WRN ATPase assay (ADP-Glo), DNA dependent ATP hydrolysis; assay type: biochemical; conditions: 3 hours pre-incubation, 300 micromolar ATP, FLAP26 ssDNA; geometric means of at least 2 determinations
Method in brief: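 Uses the WRN core helicase (aa N517-P1238) with single-strand 45-mer FLAP26 DNA in Tris pH 7.5, MgCl2, NaCl, BSA and pluronic buffer. Compound was pre-incubated 3 h with enzyme and ATP; reaction then run with 10 nM WRN, 0.2 nM FLAP26 and 300 µM ATP for 30 min at room temperature. ADP quantified by ADP-Glo luminescence; IC50 from duplicate 4-parameter fits, geometric mean of ≥2 runs.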

Chain of WRN helicase (core helicase motif aa N517-P1238) (Q14191 517-1238): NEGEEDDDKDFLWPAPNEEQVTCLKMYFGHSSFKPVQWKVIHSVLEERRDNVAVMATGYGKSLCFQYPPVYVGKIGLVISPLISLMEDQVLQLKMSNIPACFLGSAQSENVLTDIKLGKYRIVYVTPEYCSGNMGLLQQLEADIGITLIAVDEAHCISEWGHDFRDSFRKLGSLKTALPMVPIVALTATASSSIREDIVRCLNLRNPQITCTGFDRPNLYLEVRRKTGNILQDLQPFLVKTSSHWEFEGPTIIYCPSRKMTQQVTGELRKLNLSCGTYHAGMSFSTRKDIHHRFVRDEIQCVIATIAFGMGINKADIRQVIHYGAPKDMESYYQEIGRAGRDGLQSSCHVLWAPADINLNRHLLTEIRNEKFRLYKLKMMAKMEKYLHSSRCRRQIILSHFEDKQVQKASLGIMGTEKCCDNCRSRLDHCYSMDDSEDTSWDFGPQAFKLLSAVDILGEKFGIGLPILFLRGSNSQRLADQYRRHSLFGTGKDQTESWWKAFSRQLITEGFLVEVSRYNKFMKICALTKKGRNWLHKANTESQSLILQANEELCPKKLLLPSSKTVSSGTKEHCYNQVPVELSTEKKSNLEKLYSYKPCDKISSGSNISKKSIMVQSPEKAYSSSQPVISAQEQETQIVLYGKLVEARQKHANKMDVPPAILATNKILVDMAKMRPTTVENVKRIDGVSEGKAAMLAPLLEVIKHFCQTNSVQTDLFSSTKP

GI50 (SW48 cells)	GI50 (DLD1-WRN-KO cells)	IC50 [1]	Structure (SMILES)
> 10 µM	> 10 µM	61 µM	Cc1cc(C(F)(F)F)ccc1NC(=O)[C@@H]1C[C@@H](C)c2c(N3CCN(C(=O)c4ncccc4O)CC3)c(=O)n3nc(C4=CCOCC4)nc3n21 [Example 15D, (7R,9S)-2-(3,6-dihydro-2H-pyran-4-yl)-6-(4-(3-hydroxypicolinoyl)piperazin-1-yl)-7-methyl-N-(2-methyl-4-(trifluoromethyl)phenyl)-5-oxo-5,7,8,9-tetrahydropyrrolo[1,2-c][1,2,4]triazolo[1,5-a]pyrimidine-9-carboxamide]
0.2 µM	> 10 µM	0.04 µM	Cc1cc(C(F)(F)F)ccc1NC(=O)[C@H]1CCc2c(N3CCN(C(=O)c4nccc(Cl)c4O)CC3)c(=O)n3nc(C4=CCOCC4)nc3n21 [Example 19A, (R)-6-(4-(4-chloro-3-hydroxypicolinoyl)piperazin-1-yl)-2-(3,6-dihydro-2H-pyran-4-yl)-N-(2-methyl-4-(trifluoromethyl)phenyl)-5-oxo-5,7,8,9-tetrahydropyrrolo[1,2-c][1,2,4]triazolo[1,5-a]pyrimidine-9-carboxamide]
0.01 µM	> 10 µM	0.04 µM	Cc1ncnc(C(=O)N2CCN(c3c4n(c5nc(C6=CCOCC6)nn5c3=O)[C@@H](C(=O)Nc3ccc(C(F)(F)F)cc3Cl)C[C@@H]4C)[C@H]3CC[C@@H]32)c1O [Example 21C, (7S,9R)—N-(2-chloro-4-(trifluoromethyl)phenyl)-2-(3,6-dihydro-2H-pyran-4-yl)-6-((1S,6S)-5-(5-hydroxy-6-methylpyrimidine-4-carbonyl)-2,5-diazabicyclo[4.2.0]octan-2-yl)-7-methyl-5-oxo-5,7,8,9-tetrahydropyrrolo[1,2-c][1,2,4]triazolo[1,5-a]pyrimidine-9-carboxamide]
0.7 µM	> 10 µM	1 µM	Cc1ncnc(C(=O)N2CCN(c3c4n(c5nc(C6=CCOCC6)nn5c3=O)[C@H](C(=O)Nc3ccc(C(F)(F)F)cc3Cl)C[C@H]4C)CC2)c1O [Example 14D, (7R,9S)—N-(2-chloro-4-(trifluoromethyl)phenyl)-2-(3,6-dihydro-2H-pyran-4-yl)-6-(4-(5-hydroxy-6-methylpyrimidine-4-carbonyl)piperazin-1-yl)-7-methyl-5-oxo-5,7,8,9-tetrahydropyrrolo[1,2-c][1,2,4]triazolo[1,5-a]pyrimidine-9-carboxamide]
0.02 µM	> 10 µM	0.06 µM	Cc1cc(C(F)(F)F)ccc1NC(=O)[C@H]1C[C@@H](C)c2c(N3CCN(C(=O)c4ncnc(C)c4O)CC3)c(=O)n3nc(C4=CCOCC4)nc3n21 [Example 17, (7R,9R)-2-(3,6-dihydro-2H-pyran-4-yl)-6-(4-(5-hydroxy-6-methylpyrimidine-4-carbonyl)piperazin-1-yl)-7-methyl-N-(2-methyl-4-(trifluoromethyl)phenyl)-5-oxo-5,7,8,9-tetrahydropyrrolo[1,2-c][1,2,4]triazolo[1,5-a]pyrimidine-9-carboxamide]
0.5 µM	> 10 µM	0.04 µM	C[C@H]1C[C@H](C(=O)Nc2ccc(C(F)(F)F)cc2Cl)n2c1c(N1CCN(C(=O)c3nccc(Cl)c3O)CC1)c(=O)n1nc(N3CCOCC3)nc21 [Example 1C, (7S,9R)-6-(4-(4-chloro-3-hydroxypicolinoyl)piperazin-1-yl)-N-(2-chloro-4-(trifluoromethyl)phenyl)-7-methyl-2-morpholino-5-oxo-5,7,8,9-tetrahydropyrrolo[1,2-c][1,2,4]triazolo[1,5-a]pyrimidine-9-carboxamide]
0.02 µM	> 10 µM	0.02 µM	C[C@@H]1C[C@H](C(=O)Nc2ccc(C(F)(F)F)cc2Cl)n2c1c(N1CCN(C(=O)c3nccc(F)c3O)CC1)c(=O)n1nc(C3=CCOCC3)nc21 [Example 6A, (7R,9R)—N-(2-chloro-4-(trifluoromethyl)phenyl)-2-(3,6-dihydro-2H-pyran-4-yl)-6-(4-(4-fluoro-3-hydroxypicolinoyl)piperazin-1-yl)-7-methyl-5-oxo-5,7,8,9-tetrahydropyrrolo[1,2-c][1,2,4]triazolo[1,5-a]pyrimidine-9-carboxamide]
> 10 µM	> 10 µM	24 µM	Cc1ncnc(C(=O)N2CCN(c3c4n(c5nc(N6CCOCC6)nn5c3=O)[C@H](C(=O)Nc3ccc(C(F)(F)F)cc3Cl)C[C@H]4C)CC2)c1O [Example 2D, (7R,9S)—N-(2-chloro-4-(trifluoromethyl)phenyl)-6-(4-(5-hydroxy-6-methylpyrimidine-4-carbonyl)piperazin-1-yl)-7-methyl-2-morpholino-5-oxo-5,7,8,9-tetrahydropyrrolo[1,2-c][1,2,4]triazolo[1,5-a]pyrimidine-9-carboxamide]
0.04 µM	> 10 µM	0.03 µM	Cc1cc(F)c(O)c(C(=O)N2CCN(c3c4n(c5nc(N6CCOCC6)nn5c3=O)[C@@H](C(=O)Nc3ccc(C(F)(F)F)cc3Cl)C[C@H]4C)CC2)n1 [Example 3A, (7R,9R)—N-(2-chloro-4-(trifluoromethyl)phenyl)-6-(4-(4-fluoro-3-hydroxy-6-methylpicolinoyl)piperazin-1-yl)-7-methyl-2-morpholino-5-oxo-5,7,8,9-tetrahydropyrrolo[1,2-c][1,2,4]triazolo[1,5-a]pyrimidine-9-carboxamide]
0.7 µM	> 10 µM	2 µM	Cc1ncnc(C(=O)N2CCN(c3c4n(c5nc(C6=CCOCC6)nn5c3=O)[C@H](C(=O)Nc3ccc(C(F)(F)F)cc3Cl)C[C@@H]4C)CC2)c1O [Example 14B, (7S,9S)—N-(2-chloro-4-(trifluoromethyl)phenyl)-2-(3,6-dihydro-2H-pyran-4-yl)-6-(4-(5-hydroxy-6-methylpyrimidine-4-carbonyl)piperazin-1-yl)-7-methyl-5-oxo-5,7,8,9-tetrahydropyrrolo[1,2-c][1,2,4]triazolo[1,5-a]pyrimidine-9-carboxamide]
0.3 µM	> 10 µM	0.05 µM	C[C@@H]1C[C@H](C(=O)Nc2ccc(C(F)(F)F)cc2Cl)n2c1c(N1CCN(C(=O)c3nn(C)c(=O)[nH]3)CC1)c(=O)n1nc(C3=CCOCC3)nc21 [Example 7, (7R,9R)—N-(2-chloro-4-(trifluoromethyl)phenyl)-2-(3,6-dihydro-2H-pyran-4-yl)-7-methyl-6-(4-(1-methyl-5-oxo-4,5-dihydro-1H-1,2,4-triazole-3-carbonyl)piperazin-1-yl)-5-oxo-5,7,8,9-tetrahydropyrrolo[1,2-c][1,2,4]triazolo[1,5-a]pyrimidine-9-carboxamide]
0.06 µM	> 10 µM	0.05 µM	C[C@@H]1C[C@H](C(=O)Nc2ccc(C(F)(F)F)cc2Cl)n2c1c(N1CCN(C(=O)c3c(O)ccc4nccn34)CC1)c(=O)n1nc(C3=CCOCC3)nc21 [Example 9, (7R,9R)—N-(2-chloro-4-(trifluoromethyl)phenyl)-2-(3,6-dihydro-2H-pyran-4-yl)-6-(4-(6-hydroxyimidazo[1,2-a]pyridine-5-carbonyl)piperazin-1-yl)-7-methyl-5-oxo-5,7,8,9-tetrahydropyrrolo[1,2-c][1,2,4]triazolo[1,5-a]pyrimidine-9-carboxamide]
